Source: patent US10118947B2, “Modulation of structured polypeptide specificity” (BICYCLE THERAPEUTICS LIMITED, priority 2013, dated 2018)
Where two headings read alike, the source gives them in different places. Values belong to the molecule of their own block, whether it stands above or below them. Numbered stars: 1 amine (or outer) side, 2 acyl side, 3 side chain; on linkers, the order of the positions; unused ones are H or OH. Bridge positions count the residues as written; N and C are the ends. Square brackets hold non-standard residues; d marks the D form. Peptide text beside a SMILES is read from it. Tpi = O=C(O)[C@@H]1Cc2c([nH]c3ccccc23)CN1; X2 = O=C([C@@H]1Cc2ccccc2N1[*:1])[*:2]; TBMB = c1c(C[*:1])cc(C[*:3])cc1C[*:2]; Tic = O=C(O)[C@@H]1Cc2ccccc2CN1; Pip = O=C(O)[C@@H]1CCCCN1; Dpg = CCCC(N)(CCC)C(=O)O; Aze = O=C(O)[C@@H]1CCN1; βAla = NCCC(=O)O

How the values were obtained:
human plasma Kallikrein = target: T1, human plasma Kallikrein (Homo sapiens, UniProt P03952); test: Functional enzyme inhibition assay with fluorogenic substrate Z-PheArg-AMC, human plasma Kallikrein; format: biochemical
T1 construct: purchased Stratech, UK
T1 sequence (P03952 20-638): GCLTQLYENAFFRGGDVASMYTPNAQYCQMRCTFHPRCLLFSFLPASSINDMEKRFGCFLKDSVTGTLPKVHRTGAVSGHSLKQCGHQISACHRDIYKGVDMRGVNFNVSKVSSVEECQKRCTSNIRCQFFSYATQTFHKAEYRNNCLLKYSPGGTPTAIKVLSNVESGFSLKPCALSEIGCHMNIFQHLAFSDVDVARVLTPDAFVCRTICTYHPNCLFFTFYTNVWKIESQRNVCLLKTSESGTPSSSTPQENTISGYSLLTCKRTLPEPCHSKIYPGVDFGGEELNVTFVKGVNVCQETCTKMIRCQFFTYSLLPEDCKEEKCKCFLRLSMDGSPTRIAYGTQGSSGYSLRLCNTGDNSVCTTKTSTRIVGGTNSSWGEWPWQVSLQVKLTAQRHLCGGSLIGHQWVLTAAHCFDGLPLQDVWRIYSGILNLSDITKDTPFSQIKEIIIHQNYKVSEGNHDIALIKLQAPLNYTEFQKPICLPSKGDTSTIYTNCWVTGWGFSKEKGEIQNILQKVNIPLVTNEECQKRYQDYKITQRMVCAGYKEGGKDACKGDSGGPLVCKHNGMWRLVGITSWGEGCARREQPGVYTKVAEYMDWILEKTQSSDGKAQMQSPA
In short: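 Rates of AMC release (excitation 360 nm, emission 460 nm) from 100 μM final Z-PheArg-AMC, 4% DMSO, were taken over the linear phase, typically 5 to 45 minutes. IC50 from four-parameter non-linear regression; Ki also derived.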

[1] = Plasma stability profiling Method #1 (MALDI-TOF, 35% plasma), rat plasma; format: in vitro ADME; conditions: method #1
Experimental: A rapid plasma stability profiling assay was developed that employed mass spectrometric detection (MALDI-TOF, Voyager DE, Applied Biosystems) of the parent mass, until the time when the parent peptide mass was no longer observable. Specifically, 200 uM of peptide was incubated in the presence of 35% rat or human plasma (Sera labs, using citrate as anticoagulant) at 37 deg C., which was supplemented with 1×PBS (derived from a 10×PBS Stock, Sigma). At various time points (i.e. t=0, 3, 24 hrs, henceafter daily up to 10 days), 2 uL of sample was added to 18 uL of 30 mM ammonium bicarbonate in a 1:1 mixture of acetonitrile:H2O. Samples were frozen at −80 deg C. until the time of analysis. For mass spectrometric analysis that determines the approximate detection window of the peptide, the acetonitrile:H2O-diluted sample of a given time point was spotted directly (0.7 uL) onto the MALDI plate. Matrix (alpha-cyanocinnamic acid, Sigma, prepared as a saturated solution in 1:1 acetonitrile:water containing 0.1% trifluoroacetic acid) was layered over the sample (1 uL). At a similar laser intensity setting on the MALDI TOF, the time could then be determined until parent peptide was no longer detectable. It should be noted that this is a qualitative assay serves to detect relative changes in plasma stability.

- affinity surpassing that of wildtype by a factor (human plasma Kallikrein): 3
- Observable in rat plasma, for days ([1]; Table 13): 2 days
Compound: CC(=O)N[C@H]1CSCc2cc3cc(c2)CSC[C@H](NC(=O)[C@H](CCCNC(=N)N)NC(=O)[C@H](C)NC(=O)[C@@H]2CCN2C(=O)[C@H](Cc2c[nH]c4ccccc24)NC(=O)[C@H](CO)NC1=O)C(=O)N[C@@H](CC(C)C)C(=O)N[C@@H](Cc1c[nH]cn1)C(=O)N[C@@H](CCC(N)=O)C(=O)N[C@@H](CC(=O)O)C(=O)N[C@@H](CC(C)C)C(=O)N[C@H](C(N)=O)CSC3 [Ac-(06-34-18) Aze3] (Ac-CSW[Aze]ARCLHQDLC-NH2; linker 1-7-13 via TBMB)

Compound: CCCC1(CCC)NC(=O)[C@@H](NC(C)=O)CSCc2cc3cc(c2)CSC[C@H](NC(=O)[C@H](CCCNC(=N)N)NC(=O)[C@H](C)NC(=O)[C@@H]2CCCN2C(=O)[C@H](Cc2c[nH]c4ccccc24)NC1=O)C(=O)N[C@@H](CC(C)C)C(=O)N[C@@H](Cc1c[nH]cn1)C(=O)N[C@@H](CCC(N)=O)C(=O)N[C@@H](CC(=O)O)C(=O)N[C@@H](CC(C)C)C(=O)N[C@H](C(N)=O)CSC3 [Ac-(06-34-18) Dpg1] (Ac-C[Dpg]WPARCLHQDLC-NH2; linker 1-7-13 via TBMB)
- Ki (human plasma Kallikrein; Table 14, read-out: Ki (nM) (human kallikrein)): 1.09 nM
- Ki (human plasma Kallikrein; read-out: Ki / affinity to human Kallikrein): 1.1 nM
- Observable in rat plasma, for days ([1]; Table 14): 2 days

Compound: CC(=O)N[C@H]1CSCc2cc3cc(c2)CSC[C@H](NC(=O)[C@H](CCCNC(=N)N)NC(=O)[C@H](C)NC(=O)[C@@H]2CCCN2C(=O)[C@H](Cc2ccccc2)NC(=O)[C@H](CO)NC1=O)C(=O)N[C@@H](CC(C)C)C(=O)N[C@@H](Cc1c[nH]cn1)C(=O)N[C@@H](CCC(N)=O)C(=O)N[C@@H](CC(=O)O)C(=O)N[C@@H](CC(C)C)C(=O)N[C@H](C(N)=O)CSC3 [Ac-(06-34-18) FPAR] (Ac-CSFPARCLHQDLC-NH2; linker 1-7-13 via TBMB)
- reduction in potency/affinity compared to wildtype (human plasma Kallikrein): 40 fold
- Observable in rat plasma, for days ([1]; Table 21): 2 days

- Observable in rat plasma, for days ([1]; Table 13): 2 days
Compound: CC(=O)N[C@H]1CSCc2cc3cc(c2)CSC[C@H](NC(=O)[C@H](CCCNC(=N)N)NC(=O)[C@H](C)NC(=O)[C@@H]2Cc4ccccc4N2C(=O)[C@H](Cc2c[nH]c4ccccc24)NC(=O)[C@H](CO)NC1=O)C(=O)N[C@@H](CC(C)C)C(=O)N[C@@H](Cc1c[nH]cn1)C(=O)N[C@@H](CCC(N)=O)C(=O)N[C@@H](CC(=O)O)C(=O)N[C@@H](CC(C)C)C(=O)N[C@H](C(N)=O)CSC3 [Ac-(06-34-18) Ind3] (Ac-CSW[X2]ARCLHQDLC-NH2; linker 1-7-13 via TBMB)

- Observable in rat plasma, for days ([1]; Table 12): 2 days
Compound: CC(=O)N[C@H]1CSCc2cc3cc(c2)CSC[C@H](NC(=O)[C@H](CCCNC(=N)N)NC(=O)[C@H](C)NC(=O)[C@@H]2CCCN2C(=O)[C@@H]2Cc4c([nH]c5ccccc45)CN2C(=O)[C@H](CO)NC1=O)C(=O)N[C@@H](CC(C)C)C(=O)N[C@@H](Cc1c[nH]cn1)C(=O)N[C@@H](CCC(N)=O)C(=O)N[C@@H](CC(=O)O)C(=O)N[C@@H](CC(C)C)C(=O)N[C@H](C(N)=O)CSC3 [Ac-(06-34-18) NorHar2] (Ac-CS[Tpi]PARCLHQDLC-NH2; linker 1-7-13 via TBMB)

- Observable in rat plasma, for days ([1]; Table 13): 2 days
Compound: CC(=O)N[C@H]1CSCc2cc3cc(c2)CSC[C@H](NC(=O)[C@H](CCCNC(=N)N)NC(=O)[C@H](C)NC(=O)[C@@H]2Cc4c([nH]c5ccccc45)CN2C(=O)[C@H](Cc2c[nH]c4ccccc24)NC(=O)[C@H](CO)NC1=O)C(=O)N[C@@H](CC(C)C)C(=O)N[C@@H](Cc1c[nH]cn1)C(=O)N[C@@H](CCC(N)=O)C(=O)N[C@@H](CC(=O)O)C(=O)N[C@@H](CC(C)C)C(=O)N[C@H](C(N)=O)CSC3 [Ac-(06-34-18) NorHar3] (Ac-CSW[Tpi]ARCLHQDLC-NH2; linker 1-7-13 via TBMB)

- Observable in rat plasma, for days ([1]; Table 13): 2 days
Compound: CC(=O)N[C@H]1CSCc2cc3cc(c2)CSC[C@H](NC(=O)[C@H](CCCNC(=N)N)NC(=O)[C@H](C)NC(=O)[C@@H]2CCCCN2C(=O)[C@H](Cc2c[nH]c4ccccc24)NC(=O)[C@H](CO)NC1=O)C(=O)N[C@@H](CC(C)C)C(=O)N[C@@H](Cc1c[nH]cn1)C(=O)N[C@@H](CCC(N)=O)C(=O)N[C@@H](CC(=O)O)C(=O)N[C@@H](CC(C)C)C(=O)N[C@H](C(N)=O)CSC3 [Ac-(06-34-18) Pip3] (Ac-CSW[Pip]ARCLHQDLC-NH2; linker 1-7-13 via TBMB)

- Observable in rat plasma, for days ([1]; Table 13): 2 days
Compound: CC(=O)N[C@H]1CSCc2cc3cc(c2)CSC[C@H](NC(=O)[C@H](CCCNC(=N)N)NC(=O)[C@H](C)NC(=O)[C@@H]2Cc4ccccc4CN2C(=O)[C@H](Cc2c[nH]c4ccccc24)NC(=O)[C@H](CO)NC1=O)C(=O)N[C@@H](CC(C)C)C(=O)N[C@@H](Cc1c[nH]cn1)C(=O)N[C@@H](CCC(N)=O)C(=O)N[C@@H](CC(=O)O)C(=O)N[C@@H](CC(C)C)C(=O)N[C@H](C(N)=O)CSC3 [Ac-(06-34-18) Tic3] (Ac-CSW[Tic]ARCLHQDLC-NH2; linker 1-7-13 via TBMB)

- Observable in rat plasma, for days ([1]; Table 21): 2 days
Compound: CC(=O)N[C@H]1CSCc2cc3cc(c2)CSC[C@H](NC(=O)[C@H](CCCNC(=N)N)NC(=O)[C@H](CO)NC(=O)[C@@H]2CCCN2C(=O)[C@H](Cc2c[nH]c4ccccc24)NC(=O)[C@H](CO)NC1=O)C(=O)N[C@@H](CC(C)C)C(=O)N[C@@H](Cc1c[nH]cn1)C(=O)N[C@@H](CCC(N)=O)C(=O)N[C@@H](CC(=O)O)C(=O)N[C@@H](CC(C)C)C(=O)N[C@H](C(N)=O)CSC3 [Ac-(06-34-18) WPSR] (Ac-CSWPSRCLHQDLC-NH2; linker 1-7-13 via TBMB)

- Observable in rat plasma, for days ([1]; Table 21): 2 days
Compound: CC(=O)N[C@H]1CSCc2cc3cc(c2)CSC[C@H](NC(=O)[C@H](CCCNC(=N)N)NC(=O)[C@H](Cc2ccc(O)cc2)NC(=O)[C@@H]2CCCN2C(=O)[C@H](Cc2c[nH]c4ccccc24)NC(=O)[C@H](CO)NC1=O)C(=O)N[C@@H](CC(C)C)C(=O)N[C@@H](Cc1c[nH]cn1)C(=O)N[C@@H](CCC(N)=O)C(=O)N[C@@H](CC(=O)O)C(=O)N[C@@H](CC(C)C)C(=O)N[C@H](C(N)=O)CSC3 [Ac-(06-34-18) WPYR] (Ac-CSWPYRCLHQDLC-NH2; linker 1-7-13 via TBMB)

- Observable in rat plasma, for days ([1]; Table 14): 10 days
Compound: CC(=O)N[C@H]1CSCc2cc3cc(c2)CSC[C@H](NC(=O)[C@H](CCCNC(=N)N)NC(=O)CCNC(=O)[C@@H]2CCCN2C(=O)[C@H](Cc2c[nH]c4ccccc24)NC(=O)[C@H](CO)NC1=O)C(=O)N[C@@H](CC(C)C)C(=O)N[C@@H](Cc1c[nH]cn1)C(=O)N[C@@H](CCC(N)=O)C(=O)N[C@@H](CC(=O)O)C(=O)N[C@@H](CC(C)C)C(=O)N[C@H](C(N)=O)CSC3 [Ac-(06-34-18) β-Ala4] (Ac-CSWP[βAla]RCLHQDLC-NH2; linker 1-7-13 via TBMB)
